Test results reported in patent publication US20030088312A1, “Use of cladribine on a stent to prevent restenosis” (priority 2000, published 2003).

Tested on: human smooth muscle cells
Experiment: Inhibition of PDGF-stimulated human smooth muscle cell proliferation (cell count, day 6)
Format: cell-based
Settings: ratio of IC50 values, SMC vs EC
Description: To assess the ability of cladribine to prevent cell proliferation, human smooth muscle or endothelial cells (Clonetics, Walkersville, Md.) were seeded at a density of 2000 cells/cm^2 (approximately […] cells/well) into each well of 12-well plates and cultured with 1.5 ml of growth medium containing 5% fetal calf serum (FCS). After 24 hours, the growth medium was changed and fresh medium containing 10 ng/ml platelet-derived growth factor AB (PDGF AB; LIFE Technologies), as well as various concentrations of cladribine (0.001-10,000 nM) were added with triplicate wells. Medium was replaced with fresh cladribine-containing medium after 3 days. On day six, cells were detached by trypsinization to yield a cell suspension, lightly centrifuged to pellet and then counted manually using a Neubauer hemacytometer system. Clee viability was assessed by trypan blue exclusion.
Table 1 provides the percent inhibition of the various tested concentrations of cladribine on human smooth muscle and endothelial cells in culture. Cladribine produced a concentration-related decrease in the proliferation of both smooth muscle and endothelial cells in this model system. […]

Compound: Nc1nc(Cl)nc2c1ncn2[C@H]1C[C@H](O)[C@@H](CO)O1 [Cladribine]
- potency as inhibitor of smooth muscle cells relative to endothelial cells: approximately twice as potent
